{"source": "paper PMC10591057", "about": "(Cell Reports Medicine, 2023)", "tested_on": "CNV lesions", "test": "NHP laser-induced CNV, fluorescein angiography lesion grading", "format": "in vivo, Chlorocebus sabaeus", "conditions": "single ITV 1 mg Aflibercept", "data": [{"substance": "aflibercept: current standard of care anti-VEGF, single ITV administration of 1 mg", "values": [{"measurement": "incidence of grade IV lesions, Myr-EBIN vs aflibercept groups", "result": "no significant difference"}]}]}
